From patent US8383643B2, “Spiro compounds useful as inhibitors of stearoyl-coenzyme A delta-9 desaturase” (Merck Canada Inc., priority 2009, dated 2013)

Biological target: T1, human SCD1 (Homo sapiens, UniProt O00767)
T1 construct: made in house; host or cells: baculovirus/Sf9
T1 sequence (O00767 1-359): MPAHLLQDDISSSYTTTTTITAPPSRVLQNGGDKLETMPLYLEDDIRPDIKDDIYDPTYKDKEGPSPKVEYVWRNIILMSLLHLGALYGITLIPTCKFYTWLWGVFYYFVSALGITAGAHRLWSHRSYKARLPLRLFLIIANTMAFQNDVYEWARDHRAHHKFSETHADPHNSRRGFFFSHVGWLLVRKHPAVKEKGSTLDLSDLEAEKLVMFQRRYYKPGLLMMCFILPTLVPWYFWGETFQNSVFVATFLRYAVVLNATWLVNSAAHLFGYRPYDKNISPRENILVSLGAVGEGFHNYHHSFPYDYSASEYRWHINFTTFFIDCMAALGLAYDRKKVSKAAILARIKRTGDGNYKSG
Assay: SCD enzyme activity assay, reconstituted human SCD1 desaturase system ([3H]-stearoyl-CoA conversion)
Type: biochemical
Conditions: read-out: IC50 hSCD-1
Experimental: The potency of compounds of formula I against the stearoyl-CoA desaturase was determined by measuring the conversion of radiolabeled stearoyl-CoA to oleoyl-CoA using rat liver microsome or human SCD1 following previously published procedures with some modifications (Joshi, et al., J. Lipid Res., 18: 32-36 (1977); Talamo, et al., Anal. Biochem, 29: 300-304 (1969)). Liver microsome was prepared from male Wistar or Sprague Dawley rats on a high carbohydrate diet for 3 days (LabDiet #5803, Purina). The livers were homogenized (1:10 w/v) in a buffer containing 250 mM sucrose, 1 mM EDTA, 5 mM DTT and 50 mM Tris-HCl (pH 7.5). After a 100,000×g centrifugation for […], the liver microsome pellet was suspended in a buffer containing 100 mM sodium phosphate, 20% glycerol, 2 mM DTT, and stored at −78° C. Human SCD1 desaturase system was reconstituted using human SCD1 from a baculovirus/Sf9 expression system, cytochrome B5 and cytochrome B5 reductase. Typically, test compound in 2 μL DMSO was incubated for […] at room temperature with 180 μL of the SCD enzyme in a buffer containing 100 mM Tris-HCl (pH 7.5), ATP (5 mM), Coenzyme-A (0.1 mM), Triton X-100 (0.5 mM) and NADH (2 mM). The reaction was initiated by the addition of 20 μL of [^3H]-stearoyl-CoA (final concentration=2 μM, radioactivity concentration=1 μCi/mL). After 10 min, the reaction mixture (80 μL) was mixed with a calcium chloride/charcoal aqueous suspension (100 μL charcoal (10% w/v) plus 25 μL CaCl2 (2N). After centrifugation to precipitate the radioactive fatty acid species, tritiated water released from 9,10-[^3H]-stearoyl-CoA by the SCD enzyme was quantified on a scintillation counter.

Q: “2-(5-(2-(4-(4-Fluorophenyl)spiro[chromene-2,4′-piperidine]-1′-yl)thiazol-5-yl)-2H-tetrazol-2-yl)acetic acid [Example 6]” was tested. Which IC50 did it give?
A: 1.3 nM

Q: “2-(5-(5-(4-(4-Fluorophenyl)spiro[chromene-2,4′-piperidine]-1′-yl)-1,3,4-thiadiazol-2-yl)-2H-tetrazol-2-yl)acetic acid [Example 7]” was tested. Which IC50 did it give?
A: 0.97 nM

Q: How did the IC50 turn out when `O=C(O)Cn1nnc(-c2cnc(N3CCC4(C=C(c5ccc(OC(F)(F)F)cc5)c5ccccc5O4)CC3)s2)n1` [Example 3, [5-(2-{-4-[4-(Trifluoromethoxy)phenyl]-1′H-spiro[chromene-2,4′-piperidin]-1′-yl}-1,3-thiazol-5-yl)-2H-tetrazol-2-yl]acetic acid] was run?
A: 1.1 nM

Q: “(5-{2-[4-(2,4-Dichlorophenyl)-1′H-spiro[chromene-2,4′-piperidin]-1′-yl]-1,3-thiazol-5-yl}-2H-tetrazol-2-yl)acetic acid [Example 5]” was tested. Which IC50 did it give?
A: 1.1 nM

Q: Which IC50 does the source give for “(5-{2-[4-(2-Chlorophenyl)-1′H-spiro[chromene-2,4′-piperidin]-1′-yl]-1,3-thiazol-5-yl}-2H-tetrazol-2-yl)acetic acid [Example 1]” here?
A: 0.92 nM

Q: For “(5-{5-[4-(2-Chlorophenyl)-1′H-spiro[chromene-2,4′-piperidin]-1′-yl]-1,3,4-thiadiazol-2-yl}-2H-tetrazol-2-yl)acetic acid [Example 2]”, which IC50 is on record?
A: 0.61 nM

Q: With “(5-{5-[4-(2-Chlorophenyl)-1′H-spiro[chromene-2,4′-piperidin]-1′-yl]-1,3,4-thiadiazol-2-yl}-2H-tetrazol-2-yl)acetic acid [Example 4]” as the molecule, how does the IC50 read?
A: 2 nM
